The results in this text go back to patent US20240240136A1, “SELECTIVE LYSIS OF MAMMALIAN EUKARYOTIC CELLS AND VISUALIZATION OF VIABLE BACTERIAL CELLS” (priority 2021, published 2024).

In brackets after ≈: the same amount, converted by molar mass. Where a name gives a salt, the structure may show the parent alone. Read-outs that look alike come from different tables or passages of the source.

One data set has as its system E. coli ATCC 25922. The data set is described as follows: Antibiotic susceptibility testing with lysis buffer sample preparation and PB detection. To be noted: for MIC: E. coli ATCC 25922 spiked in blood and MH media, 16 hr of incubation; for growth of bacteria (OD value) with increase in antibiotic concentration: ampicillin 2 mg/L to 16 mg/L, gentamicin 0.5 mg/L to 8 mg/L, after 16 hr of incubation. It counts as cell-based. The text has this: FIGS. 7 and 8 show antibiotic susceptibility testing. The lysis buffer based sample preparation method combined with detection using PB formation was used to perform antibiotic susceptibility testing (recommended by EUCAST [15]) using different concentration of ampicillin and gentamicin in separate experiments, on E. coli ATCC 25922 bacteria strain (10^6 CFU/mL) spiked in blood (sample) and in MH media (positive control). ‘MH+Lysis buffer’ is used as negative control (NC). […] The corresponding decrease in PB colour formation on the filter paper with increase in ampicillin and gentamicin concentration is shown on top of each bar in the graphs of the FIG. 7 and FIG. 8, respectively. The MIC of ampicillin and gentamicin was determined to be 16 and 8 mg/L respectively, which was in agreement with the MIC range provided by EUCAST for E. coli ATCC 25922.

`O=C(O)CC(O)(CC(=O)O)C(=O)O` [Citrate, ferric ammonium citrate]: the toxicity to bacteria result in the data set with bacteria is on record as “not toxic”.

In the case of `CC1(C)S[C@@H]2[C@H](NC(=O)[C@H](N)c3ccccc3)C(=O)N2[C@H]1C(=O)O` [ampicillin], in the data set with E. coli ATCC 25922 (Escherichia coli, ATCC25922, read-out: MIC), the MIC turned out to be 16 µg/mL (≈ 45.8 µM). Besides, in the data set with E. coli ATCC 25922, the “growth of bacteria (OD value) with increase in antibiotic concentration” value is listed as “growth of bacteria decreased”.

On to gentamicin, for which, in the data set with E. coli ATCC 25922, the MIC stood at 8 µg/mL and the “growth of bacteria (OD value) with increase in antibiotic concentration” value is “growth of bacteria decreased”.

In general, MIC refers to the lowest concentration that inhibits growth of the organism.
